# From US9963496B2, “Stable glucagon analogues and use for treatment of hypoglycaemia” (Novo Nordisk A/S, priority 2014, dated 2018)
# *1 amine or outer side, *2 acyl side, *3 side chain or, on linkers, in order; H or OH if unused. Where a SMILES comes first, the peptide text is derived from it. Side-chain parts run from the residue outwards. The star is where a group is joined. γGlu = O=C(O)[C@H](CCC(=O)[*:2])N[*:1]; Desaminohistidyl = O=C(CCc1c[nH]cn1)*
# Columns and labels:
# [1] = biological target: T1, human glucagon receptor (Homo sapiens, UniProt P47871); assay: Assay (II)(b): glucagon receptor binding, 125I-glucagon displacement on isolated membranes (SPA); conditions: displacement of 125I-glucagon, membranes of BHK cells with human glucagon receptor, 2 h at 25° C.; read-out: IC50 hGlucagonR
# T1 construct: expressed in transfected cells; host or cells: BHK cells, clone BHK hGCGR A3*25; isolated membranes
# Description: (b) Glucagon Receptor Binding
# The purpose of this assay was to test the in vitro receptor binding activity of the glucagon derivatives of the invention. The receptor binding activity is a measure of affinity of a derivative for the human glucagon receptor.
# The receptor binding of each compound to the human glucagon receptor was measured in a displacement binding assay. In this type of assay a labelled ligand (in this case 125I-glucagon) is bound to the receptor. Each derivative is added in a series of concentrations to isolated membranes containing the human glucagon receptor and displacement of the labelled ligand is monitored. The receptor binding is reported as the concentration at which half of the labelled ligand is displaced from the receptor, the IC50 value.
# HME buffer consisted of 25 mM HEPES, 2 mM MgCl2 and 1 mM EDTA, and pH was adjusted to 7.4. Binding buffer consisted of 50 mM HEPES supplemented with 5 mM MgCl2, 1 mM CaCl2, 0.02% Tween 20 and 0.1% Ovalbumin, and pH was adjusted to 7.4.
# The cells used in this assay (clone BHK hGCGR A3*25) were BHK cells stable transfected with an expression plasmid containing the cDNA encoding the human glucagon receptor.
# The cells were grown at 5% CO2 in DMEM, 10% fetal calf serum, 1% Pen/Strep (Penicillin/Streptomycin) and 1.0 mg/mL of the selection marker G418. To make a membrane preparation the cells were grown to approximately 80% confluence. The cells were washed twice in phosphate-buffered saline and harvested. The cells were pelleted using a brief centrifugation and the cell pellet was kept on ice. The cells were lysed by adding approx. 5 mL HME buffer, mix by pipetting and snap freeze in liquid nitrogen. The cell lysate was quickly thawed and HME buffer added to 10 mL. The cell pellet was homogenised with an ULTRA-THURRAX dispersing instrument for 20-30 seconds. The homogenate was centrifuged at 20,000×G, 4° C. for 10 minutes. The pellet was resuspended (homogenised) in 1-2 mL HME buffer. The protein concentration was determined. The membranes were aliquoted and snap frozen in liquid nitrogen and stored at minus 80° C.
# • 1. For the receptor binding assay 50 μl of the assay buffer was added to each well of an assay plate. • 2. Test compounds were serially diluted to give the following concentrations: 8×10 EE-7 M, 8×10 EE-8 M, 8×10 EE-9 M, 8×10 EE-10 M, 8×10 EE-11 M, 8×10 EE-12 M and 8×10 EE-13 M. Twenty-five μl were added to appropriate wells in the assay plate. • 3. Cell membrane aliquots were thawed and diluted to their working concentration. Fifty μl were added to each well in the assay plate. • 4. WGA SPA beads were suspended in assay buffer at 20 mg/mL. The suspension was diluted to 10 mg/mL in assay buffer just prior to addition to the assay plate. Fifty μl were added to each well in the assay plate. • 5. The incubation was started by adding 25 μl of 480 pM solution of [125I]-glucagon to each well of the assay plate. A 25 μl aliquot was reserved for measuring total counts/well. • 6. The assay plate was incubated for 2 h at 25° C. • 7. The assay plate was centrifuged for 10 min at 1500 rpm. • 8. The assay plate was read in a Packard TopCount NXT instrument. Calculations
# The data from the TopCount instrument were transferred to GraphPad Prism software. The software averaged the values for the replicates and performed a non-linear regression.
# [2] = physchem; format: physicochemical; conditions: pH 7.5
# Outline: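 Peptide at 250 μM in 10 mM HEPES pH 7.5 with 1 μM Thioflavin T, incubated at 37° C with 960 rpm orbital shaking. ThT fluorescence (ex 444/em 485 nm) read every 20 min; lag-time (t0−2τ) and kapp (1/τ) from curve fit. Recovery is post-assay supernatant peptide by RP-HPLC as % of initial.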
# T1 sequence (P47871 26-477): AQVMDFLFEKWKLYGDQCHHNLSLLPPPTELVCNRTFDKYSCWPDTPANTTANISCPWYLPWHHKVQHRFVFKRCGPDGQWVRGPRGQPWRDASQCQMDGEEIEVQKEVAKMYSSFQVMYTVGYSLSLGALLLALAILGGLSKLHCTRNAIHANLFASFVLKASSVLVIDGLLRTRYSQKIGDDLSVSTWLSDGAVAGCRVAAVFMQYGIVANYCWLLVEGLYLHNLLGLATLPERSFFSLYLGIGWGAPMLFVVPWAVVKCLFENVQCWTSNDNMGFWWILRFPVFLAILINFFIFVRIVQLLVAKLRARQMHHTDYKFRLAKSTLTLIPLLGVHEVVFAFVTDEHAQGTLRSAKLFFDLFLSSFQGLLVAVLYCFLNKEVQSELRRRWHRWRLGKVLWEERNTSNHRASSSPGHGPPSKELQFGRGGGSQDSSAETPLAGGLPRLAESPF
SMILES,IC50 [1] [nM],recovery at 250 μM [2] [%]
"CC(=O)N[C@@H](CCC(=O)N[C@@H](CCC(=O)N[C@@H](CCC(=O)N[C@@H](CCC(=O)NCCCC[C@H](NC(=O)[C@@H](NC(=O)[C@H](Cc1ccccc1)NC(=O)[C@H](CCC(=O)O)NC(=O)[C@H](CCC(N)=O)NC(=O)[C@H](C)NC(=O)[C@H](CCCNC(=N)N)NC(=O)[C@H](CCCNC(=N)N)NC(=O)[C@H](CO)NC(=O)[C@H](CCC(=O)O)NC(=O)[C@H](CC(C)C)NC(=O)[C@H](Cc1ccc(O)cc1)NC(=O)[C@H](CCCCN)NC(=O)[C@H](CO)NC(=O)[C@H](Cc1ccc(O)cc1)NC(=O)[C@H](CC(=O)O)NC(=O)[C@H](CO)NC(=O)[C@@H](NC(=O)[C@H](Cc1ccccc1)NC(=O)[C@@H](NC(=O)CNC(=O)[C@H](Cc1c[nH]cn1)NC(=O)[C@H](CO)NC(=O)CCc1c[nH]cn1)[C@@H](C)O)[C@@H](C)O)C(C)C)C(=O)N[C@@H](Cc1c[nH]c2ccccc12)C(=O)N[C@@H](CC(C)C)C(=O)N[C@@H](CC(C)C)C(=O)N[C@@H](CO)C(=O)N[C@H](C(=O)O)[C@@H](C)O)C(=O)O)C(=O)O)C(=O)O)C(=O)O [Example 6, N^ϵ24-[(4S)-4-[[(4S)-4-[[(4S)-4-[[(4S)-4-acetamido-4-carboxybutanoyl]amino]-4-carboxybutanoyl]amino]-4-carboxybutanoyl]amino]-4-carboxybutanoyl]-[Imp1, His3, Glu15, Glu21, Lys24, Leu27, Ser28]-Glucagon] (Desaminohistidyl-SHGTFTSDYSKYLESRRAQEFVK([γGlu-γGlu-γGlu-γGlu-Ac])WLLST-OH)",1.8,101
"CC(=O)N[C@@H](CCC(=O)N[C@@H](CCC(=O)N[C@@H](CCC(=O)N[C@@H](CCC(=O)NCCCC[C@H](NC(=O)[C@@H](NC(=O)[C@H](Cc1ccccc1)NC(=O)[C@H](CC(=O)O)NC(=O)[C@H](CCC(N)=O)NC(=O)[C@H](C)NC(=O)[C@H](CCCNC(=N)N)NC(=O)[C@H](CCCNC(=N)N)NC(=O)[C@H](CC(C)C)NC(=O)[C@H](CC(=O)O)NC(=O)[C@H](CC(C)C)NC(=O)[C@H](Cc1ccc(O)cc1)NC(=O)[C@H](CCCCN)NC(=O)[C@H](CO)NC(=O)[C@H](Cc1ccc(O)cc1)NC(=O)[C@H](CC(=O)O)NC(=O)[C@H](CO)NC(=O)[C@@H](NC(=O)[C@H](Cc1ccccc1)NC(=O)[C@@H](NC(=O)CNC(=O)[C@H](Cc1c[nH]cn1)NC(=O)[C@H](CO)NC(=O)CCc1c[nH]cn1)[C@@H](C)O)[C@@H](C)O)C(C)C)C(=O)N[C@@H](Cc1c[nH]c2ccccc12)C(=O)N[C@@H](CC(C)C)C(=O)N[C@@H](CC(C)C)C(=O)N[C@@H](CO)C(=O)N[C@H](C(=O)O)[C@@H](C)O)C(=O)O)C(=O)O)C(=O)O)C(=O)O [Example 9, N^ϵ24-[(4S)-4-[[(4S)-4-[[(4S)-4-[[(4S)-4-acetamido-4-carboxybutanoyl]amino]-4-carboxybutanoyl]amino]-4-carboxybutanoyl]amino]-4-carboxybutanoyl]-[Imp1, His3, Leu16, Lys24, Leu27, Ser28]-Glucagon] (Desaminohistidyl-SHGTFTSDYSKYLDLRRAQDFVK([γGlu-γGlu-γGlu-γGlu-Ac])WLLST-OH)",0.5,100
